From patent publication US7626021B2, “Fused ring heterocycle kinase modulators” (SGX Pharmaceuticals, Inc., priority 2004, dated 2009)

Molecular target: T1, MET kinase (Homo sapiens, UniProt P08581)
T1 construct: Sf9 insect cell culture expressing the kinase domain of human Met; 6x Histidine tag (TEV-cleavable) (cleaved yes); made in house; host or cells: Sf9 insect cells
Assay: MET luminescence-based enzyme assay (Kinase-Glo)
Assay type: biochemical
Text: In addition to the c-Abl PK/LDH coupled assay (above), homogeneous luminescence-based inhibitor screening assays were developed for c-Abl, MET, AurA, and PDK1 kinases (among others). Each of these assays made use of an ATP depletion assay (Kinase-Glo™, Promega Corporation, Madison, Wis.) to quantitate kinase activity. The Kinase-Glo™ format uses a thermostable luciferase to generate luminescent signal from ATP remaining in solution following the kinase reaction. The luminescent signal is inversely correlated with the amount of kinase activity.
MET Luminescence-based Enzyme Assay
Materials: Poly Glu-Tyr (4:1) substrate (Sigma Cat# P-0275), ATP (Sigma Cat#A-3377, FW=551), HEPES buffer, pH 7.5, Bovine serum albumin (BSA) (Roche 92423420), MgCl2, Staurosporine (Streptomyces sp. Sigma Cat#85660-1MG), white Costar 384-well flat-bottom plate (VWR Cat#29444-088). […]
Standard Assay Setup for 384-well format (20 μl kinase reaction, 40 μl detection reaction): 10 mM MgCl2; 0.3 mg/ml poly Glu-Tyr; 0.1% BSA; 1 μl test compound (in DMSO); 0.4 μg/ml MET kinase; 10 μM ATP; 100 mM HEPES buffer. […] Kinase reactions were incubated at 21° C. for 60 min, then 20 μl of Kinase-Glo™ reagent were added to each well to quench the kinase reaction and initiate the luminescence reaction. After a 20 min incubation at 21° C., the luminescence was detected in a plate-reading luminometer.

T1 sequence (P08581 1078-1345 limits assumed): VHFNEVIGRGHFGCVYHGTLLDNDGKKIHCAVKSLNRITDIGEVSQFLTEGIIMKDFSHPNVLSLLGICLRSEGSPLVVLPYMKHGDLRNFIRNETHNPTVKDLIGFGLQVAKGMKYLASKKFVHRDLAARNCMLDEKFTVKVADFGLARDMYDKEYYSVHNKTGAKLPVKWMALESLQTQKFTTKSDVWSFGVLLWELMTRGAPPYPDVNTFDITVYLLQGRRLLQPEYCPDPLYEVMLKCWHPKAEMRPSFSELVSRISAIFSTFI

- IC50: 1 to 10 µM
SMILES: CCN1CCN(C(=O)c2cccc(-c3cnc4[nH]nc(-c5cc(F)ccc5OC)c4c3)c2)CC1
